Test results as given in patent US6531573B1, “Antifungal and antibacterial peptides” (Trustees of Boston University, priority 1997, dated 2003).

Tests used:
[1] = target: T1, Clostripain (Hathewaya histolytica, UniProt P09870); assay: Clostripain inhibition; assay type: biochemical; conditions: endopeptidase of Clostridium histolyticum
T1 construct: purchased Sigma Chemical Corp., St. Louis, Mo
Description: Clostripain from Clostridium histolyticum (Sigma Chemical Corp., St. Louis, Mo.) is dissolved in deionized water to a concentration of 1 mg/ml (300 units/mg) and activated with the addition of 10 mmol/L DTT. To measure its hydrolytic activity, clostripain ( 6 units) is added to […] Hepes buffer, pH 7.5, containing 80 μmol/L BAPNA (benzoyl-arginine-p-nitroanilide), together with 5.6 μmol/L of histatin peptide inhibitor. As controls, assays are performed in the absence of any histatin peptide inhibitor. The activity is monitored continuously at 405 nm using a Molecular Devices Vmax microtitre plate reader. The activities are determined from the maximum rates of substrate hydrolysis. Assays are done in duplicate, and the means normalized to the controls.

[2] = tested on: P. gingivalis 381; conditions: cited from earlier work

T1 sequence (P09870 191-526): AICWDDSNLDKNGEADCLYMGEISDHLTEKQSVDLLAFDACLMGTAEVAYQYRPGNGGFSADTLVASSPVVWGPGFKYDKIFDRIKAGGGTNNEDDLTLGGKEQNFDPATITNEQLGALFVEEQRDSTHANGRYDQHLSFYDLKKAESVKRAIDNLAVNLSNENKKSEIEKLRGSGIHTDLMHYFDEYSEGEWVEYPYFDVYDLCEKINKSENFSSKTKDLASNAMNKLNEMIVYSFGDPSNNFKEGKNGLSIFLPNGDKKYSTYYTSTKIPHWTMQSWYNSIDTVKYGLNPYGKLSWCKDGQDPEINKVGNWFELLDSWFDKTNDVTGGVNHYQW
T1 sequence (P09870 51-181): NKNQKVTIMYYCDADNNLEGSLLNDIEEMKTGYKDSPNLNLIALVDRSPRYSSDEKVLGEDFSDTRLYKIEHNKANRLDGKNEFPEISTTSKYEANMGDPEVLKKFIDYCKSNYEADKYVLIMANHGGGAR

histatin 5
inhibition of clostripain (in words) [1]: can be inhibited | concentration giving complete hemagglutination inhibition [2]: 5 nmol/mL | inhibition of hemagglutination (in words) [2]: inhibit hemagglutination
